Patent publication US8273890B2 (4SC AG, priority 2007, dated 2012)

Target: T1, recombinant Plk1 protein (Homo sapiens, UniProt P53350)
T1 construct: histidine tag (N); made in house; host or cells: SF9 insect cells
Experiment: Plk1 kinase activity inhibition assay (33P-ATP, alpha casein substrate, flash plates)
Format: biochemical
Conditions: enzymatic assay, 100 nM Li-ATP, 80 minutes at 30° C.
Protocol: The inhibition of Plk1 kinase activity can be measured using recombinant Plk1 protein expressed as an N-terminally histidine-tagged protein in SF9 insect cells and alpha casein as substrate. The Plk1 assay is run in 96 well plates by incubating 50 to 100 ng per well recombinant Plk1, 500 ng per well alpha casein (Sigma, # C-6780) as substrate, 10 μl of compound of invention (test compounds were dissolved as 20 mM solutions in dimethylsulfoxide (DMSO) and subsequently diluted), and 100 nM Li-ATP (including ^33P-ATP) in 100 μl of reaction buffer ([…] HEPES, pH 7.5; 3 mM MgCl2; 3 mM MnCl2; 3 μM Na-Orthovanadat; 1 mM DTT; 1 μg/ml PEG 8000) for 80 minutes at 30° C. The reactions are terminated by adding 100 μl stopping buffer (2% H3PO4 for 5 minutes) and are washed 3 times with washing solution (0.9% NaCl). Determining ^33P incorporated into the protein substrate alpha casein, the detection is based on the adhesion of the phosphorylated protein to the surface of scintillator-coated flash plates (Perkin Elmer, USA; #SMP-200). Phosphorylation of alpha casein is measured by counting the radioactivity bound to the plate for 60 sec. using a plate reader (Perkin Elmer, USA; Wallac Microbeta). By this method, the IC50 value of the Plk1 inhibition is determined as described above.

T1 sequence (P53350 whole entry): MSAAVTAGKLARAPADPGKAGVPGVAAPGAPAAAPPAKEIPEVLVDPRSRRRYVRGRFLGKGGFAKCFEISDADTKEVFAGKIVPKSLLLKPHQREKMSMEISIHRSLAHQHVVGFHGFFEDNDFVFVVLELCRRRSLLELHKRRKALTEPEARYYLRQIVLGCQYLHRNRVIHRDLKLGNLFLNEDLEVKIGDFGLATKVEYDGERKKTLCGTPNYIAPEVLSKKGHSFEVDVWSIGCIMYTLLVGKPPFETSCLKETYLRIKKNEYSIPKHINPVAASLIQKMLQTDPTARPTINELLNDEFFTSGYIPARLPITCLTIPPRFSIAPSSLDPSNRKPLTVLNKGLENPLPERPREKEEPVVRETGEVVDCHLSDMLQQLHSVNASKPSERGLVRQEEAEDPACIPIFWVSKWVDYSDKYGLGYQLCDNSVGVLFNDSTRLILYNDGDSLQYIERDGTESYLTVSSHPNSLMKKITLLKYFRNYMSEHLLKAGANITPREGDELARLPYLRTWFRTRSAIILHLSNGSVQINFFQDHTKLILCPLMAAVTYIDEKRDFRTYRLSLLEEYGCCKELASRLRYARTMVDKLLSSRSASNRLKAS

Row | Structure (SMILES) | IC50
1 | CC1CCN(Cc2cc3c(cn2)ncn3-c2cc(O[C@H](C)c3ccccc3C(F)(F)F)c(C(N)=O)s2)CC1 [Example 93, 5-{6-[(4-methylpiperidin-1-yl)methyl]-1H-imidazo[4,5-c]pyridin-1-yl}-3-{(1R)-1-[2-(trifluoromethyl)phenyl]ethoxy}thiophene-2-carboxamide] | 10 to 100 nM
2 | CC(C)N1CCN(Cc2cc3c(cn2)ncn3-c2cc(O[C@H](C)c3ccccc3C(F)(F)F)c(C(N)=O)s2)CC1 [Example 121, 5-{6-[(4-isopropylpiperazin-1-yl)methyl]-1H-imidazo[4,5-c]pyridin-1-yl}-3-{(1R)-1-[2-(trifluoromethyl)phenyl]ethoxy}thiophene-2-carboxamide] | < 10 nM
3 | Cc1ccccc1C(C)Oc1cc(-n2cnc3cnc(CN4CCN(C)CC4)cc32)sc1C(N)=O (stereo not drawn) [Example 148, 3-[1-(2-methylphenyl)ethoxy]-5-{6-[(4-methylpiperazin-1-yl)methyl]-1H-imidazo[4,5-c]pyridin-1-yl}thiophene-2-carboxamide] | < 10 nM
4 | C[C@@H](Oc1cc(-n2cnc3cnc(CN4CCNCC4)cc32)sc1C(N)=O)c1ccccc1C(F)(F)F [Example 92] | < 10 nM
5 | CC1CN(Cc2cc3c(cn2)ncn3-c2cc(O[C@H](C)c3ccccc3C(F)(F)F)c(C(N)=O)s2)CCN1C (stereo partly drawn) [Example 74, 5-{6-[(3,4-dimethylpiperazin-1-yl)methyl]-1H-imidazo[4,5-c]pyridin-1-yl}-3-{(1R)-1-[2-(trifluoromethyl)phenyl]ethoxy}thiophene-2-carboxamide] | < 10 nM
6 | C[C@@H](Oc1cc(-n2cnc3cnc(CN4CCN(c5ncccn5)CC4)cc32)sc1C(N)=O)c1ccccc1C(F)(F)F [Example 77, 5-{6-[(4-pyrimidin-2-ylpiperazin-1-yl)methyl]-1H-imidazo[4,5-c]pyridin-1-yl}-3-{(1R)-1-[2-(trifluoromethyl)phenyl]ethoxy}thiophene-2-carboxamide] | 10 to 100 nM
7 | C[C@@H](Oc1cc(-n2cnc3cnc(CN4CCN(C)CC4)cc32)sc1C(N)=O)c1ccccc1Br [Example 98, 3-[(1R)-1-(2-bromophenyl)ethoxy]-5-{6-[(4-methylpiperazin-1-yl)methyl]-1H-imidazo[4,5-c]pyridin-1-yl}thiophene-2-carboxamide] | < 10 nM
8 | C[C@@H](Oc1cc(-n2cnc3cnc(CO)cc32)sc1C(N)=O)c1ccccc1Cl [Example 54, 3-[(1R)-1-(2-chlorophenyl)ethoxy]-5-[6-(hydroxymethyl)-1H-imidazo[4,5-c]pyridin-1-yl]thiophene-2-carboxamide] | < 10 nM

Other lines, results leading:

Row | IC50 | Structure (SMILES)
9 | 10 to 100 nM | C[C@@H](Oc1cc(-n2cnc3cnc(CN4CCN(CCN(C)C)CC4)cc32)sc1C(N)=O)c1ccccc1C(F)(F)F [Example 70, 5-[6-({4-[2-(dimethylamino)ethyl]piperazin-1-yl}methyl)-1H-imidazo[4,5-c]pyridin-1-yl]-3-{(1R)-1-[2-(trifluoromethyl)phenyl]ethoxy}thiophene-2-carboxamide]
10 | < 10 nM | C[C@@H](Oc1cc(-n2cnc3cnc(CN4CCN(C5CC5)CC4)cc32)sc1C(N)=O)c1ccccc1C(F)(F)F [Example 60, 5-{6-[(4-cyclopropylpiperazin-1-yl)methyl]-1H-imidazo[4,5-c]pyridin-1-yl}-3-{(1R)-1-[2-(trifluoromethyl)phenyl]ethoxy}thiophene-2-carboxamide]
11 | 10 to 100 nM | COc1cc2ncn(-c3cc(OCc4ccccc4C(F)(F)F)c(C(N)=O)s3)c2nc1OC [Example 21B, 5-(5,6-Dimethoxy-3H-imidazo[4,5-b]pyridin-3-yl)-3-{[2-(trifluoromethyl)benzyl]oxy}thiophene-2-carboxamide]
12 | 10 to 100 nM | C[C@@H](Oc1cc(-n2cnc3cnc(CN4CCN(c5ccccc5)CC4)cc32)sc1C(N)=O)c1ccccc1C(F)(F)F [Example 59, 5-{6-[(4-phenylpiperazin-1-yl)methyl]-1H-imidazo[4,5-c]pyridin-1-yl}-3-{(1R)-1-[2-(trifluoromethyl)phenyl]ethoxy}thiophene-2-carboxamide]
